In this assay the target is T1, TSHR (Homo sapiens, UniProt P16473).
T1 construct: expressed in transfected cells
In words: cAMP accumulation radioimmunoassay (RIA), inhibition of TSH-induced cAMP production in HEK-293 cells stably expressing TSHR. It counts as cell-based. The arrangement: antagonistic activity (% inhibition): concentration or dose not given beside the values. The note with it: inhibiting cAMP stimulation by TSH, radioimmunoassay. The protocol: HEK-293 cells stably expressing TSHR, FSHR, LHGCR or CRF1R were cultured for 48 h and stimulated for 1 h at 37° C. with stimulation buffer (DMEM supplemented with 10 mM HEPES, 0.5% BSA, 0.25 mM 3-isobutyl-1-methylxanthine) containing the ligands as indicated. After stimulation medium was aspirated and reactions were stopped by lysis of the cells with 0.1% trifluoroacetic acid, 0.005% Triton X-100 for 30 min at 4° C. Supernatants were collected and heated at 95° C. for 10 min, dried in a rotation vacuum concentrator (Alpha-RCV, Christ) and finally stored at −20° C. until use. After reconstitution and acetylation of the samples (Jäschke et al. 2006), the cAMP content was determined using cAMP-^125I-tyrosyl methyl ester (10,000 cpm, IBL) and polyclonal rabbit anti cAMP antibodies. The radioactivity of the precipitate was determined in a γ-counter.
For the Secondary Screening cAMP accumulation was measured by radioimmunoassay (RIA) in HEK-293-TSHR cells as described before.
For the secondary screening we used a very sensitive in vitro technique, the radioimmunoassay. This assay was established and performed in HEK-293 cell line stably expressing TSHR.
Therefore RIA was used to measure the cAMP accumulation upon stimulation with TSH (EC80 value) and confirmed the desired effect for S4 and S9 with a clear decrease of cAMP production.

Structures are written as SMILES.

We go through 16 molecules from patent US10596168B2, “Antagonists of the thyroid-stimulating hormone receptor (TSHR)” (Forschungsverbund Berlin e.V., priority 2016, dated 2020).

T1 sequence (P16473 21-764): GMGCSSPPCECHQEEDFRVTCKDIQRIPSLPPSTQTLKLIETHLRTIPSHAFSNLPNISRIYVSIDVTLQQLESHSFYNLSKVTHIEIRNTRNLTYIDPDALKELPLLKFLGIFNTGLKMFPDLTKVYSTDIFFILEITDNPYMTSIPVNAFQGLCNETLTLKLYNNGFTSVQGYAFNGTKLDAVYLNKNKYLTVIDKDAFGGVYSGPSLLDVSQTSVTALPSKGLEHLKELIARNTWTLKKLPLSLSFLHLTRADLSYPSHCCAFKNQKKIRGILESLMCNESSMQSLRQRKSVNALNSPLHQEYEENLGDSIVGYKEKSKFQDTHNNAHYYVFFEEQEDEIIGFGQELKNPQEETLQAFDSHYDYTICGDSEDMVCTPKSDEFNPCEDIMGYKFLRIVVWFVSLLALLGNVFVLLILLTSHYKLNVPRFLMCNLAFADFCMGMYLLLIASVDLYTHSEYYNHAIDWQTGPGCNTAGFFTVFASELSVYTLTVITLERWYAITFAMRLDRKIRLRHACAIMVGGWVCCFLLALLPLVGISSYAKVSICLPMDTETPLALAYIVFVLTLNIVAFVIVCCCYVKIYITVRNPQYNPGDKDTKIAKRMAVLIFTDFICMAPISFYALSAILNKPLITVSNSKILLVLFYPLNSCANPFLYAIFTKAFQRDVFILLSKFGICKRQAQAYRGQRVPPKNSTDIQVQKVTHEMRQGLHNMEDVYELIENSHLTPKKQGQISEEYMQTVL

Consider `COc1ccc(N2C(=O)[C@@H]3[C@H]4C[C@H]([C@@H]5Sc6[nH]c(=O)sc6[C@@H](c6ccccc6)[C@H]45)[C@@H]3C2=O)cc1` (racemic) [Compound S89, (4aR,5R,5aS,8aS,9S,9aR,10S)-7-(4-methoxyphenyl)-10-phenyl-3,4a,5,5a,8a,9,9a,10-octahydro-5,9-methanothiazolo[5′,4′:5,6]thiopyrano[2,3-t]isoindole-2,6,8(7H)-trione compound with (4aS,5S,5aR,8aR,9R,9aS,10R)-7-(4-methoxyphenyl)-10-phenyl-3,4a,5,5a,8a,9,9a,10-octahydro-5,9-methanothiazolo[5′,4′:5,6]thiopyrano[2,3-t]isoindole-2,6,8(7H)-trione (1:1)], for which the “antagonistic activity (% inhibition)” value was 22%. On to `Cc1ccc(N2C(=O)[C@@H]3[C@H]4C[C@H]([C@@H]5Sc6[nH]c(=O)sc6[C@@H](c6ccccc6)[C@H]45)[C@@H]3C2=O)cc1` (racemic) [Compound S90, (4aR,5R,5aS,8aS,9S,9aR,10S)-10-phenyl-7-(p-tolyl)-3,4a,5,5a,8a,9,9a,10-octahydro-5,9-methanothiazolo[5′,4′:5,6]thiopyrano[2,3-f]isoindole-2,6,8(7H)-trione Compound with (4aS,5S,5aR,8aR,9R,9aS,10R)-10-phenyl-7-(p-tolyl)-3,4a,5,5a,8a,9,9a,10-octahydro-5,9-methanothiazolo[5′,4′:5,6]thiopyrano[2,3-f]isoindole-2,6,8(7H)-trione (1:1)], for which the “antagonistic activity (% inhibition)” value worked out at 53%.

`COC(=O)c1ccc(N2C(=O)[C@@H]3[C@H]4C[C@H]([C@@H]5Sc6[nH]c(=O)sc6[C@@H](c6ccccc6)[C@H]45)[C@@H]3C2=O)cc1` (racemic) [Compound S87, methyl 4-((4aR,5R,5aS,8aS,9S,9aR,10S)-2,6,8-trioxo-10-phenyl-3,4a,5,5a,6,8,8a,9,9a,10-decahydro-5,9-methanothiazolo[5′,4′:5,6]thiopyrano[2,3-f]isoindol-7(2H)-yl)benzoate compound with methyl 4-((4aS,5S,5aR,8aR,9R,9aS,10R)-2,6,8-trioxo-10-phenyl-3,4a,5,5a,6,8,8a,9,9a,10-decahydro-5,9-methanothiazolo[5′,4′:5,6]thiopyrano[2,3-f]isoindol-7(2H)-yl)benzoate (1:1)]: the “antagonistic activity (% inhibition)” value amounted to 29%. Consider `Cc1ccc(N2C(=O)C3C4CC(C3C2=O)C2C(c3ccc(N(C)C)cc3)c3sc(=O)[nH]c3SC42)cc1` (stereo not shown) [Compound S18], for which the “antagonistic activity (% inhibition)” value was 30%. With `CCOC(=O)N1CCN(c2ncc(N3C(=O)[C@@H]4[C@H](C3=O)[C@H]3C=C[C@@H]4C3)cc2[N+](=O)[O-])CC1` [Compound S35] the figure was 15%; with `O=C1[C@@H]2[C@H]3C[C@H]([C@@H]4Sc5[nH]c(=O)sc5[C@@H](c5ccc(F)cc5)[C@H]34)[C@@H]2C(=O)N1c1ccccc1` (racemic) [Compound S124, (4aR,5R,5aS,8aS,9S,9aR,10S)-10-(4-fluorophenyl)-7-phenyl-3,4a,5,5a,8a,9,9a,10-octahydro-5,9-methanothiazolo[5′,4′:5,6]thiopyrano[2,3-f]isoindole-2,6,8(7H)-trione compound with (4aS,5S,5aR,8aR,9R,9aS,10R)-10-(4-fluorophenyl)-7-phenyl-3,4a,5,5a,8a,9,9a,10-octahydro-5,9-methanothiazolo[5′,4′:5,6]thiopyrano[2,3-f]isoindole-2,6,8(7H)-trione (1:1)], 22%. For `COC(=O)c1cccc(N2C(=O)[C@@H]3[C@H]4C[C@H]([C@@H]5Sc6[nH]c(=O)sc6[C@@H](c6ccccc6)[C@H]45)[C@@H]3C2=O)c1` (racemic) [Compound S96, methyl 3-((4aR,5R,5aS,8aS,9S,9aR,10S)-2,6,8-trioxo-10-phenyl-3,4a,5,5a,6,8,8a,9,9a,10-decahydro-5,9-methanothiazolo[5′,4′:5,6]thiopyrano[2,3-f]isoindol-7(2H)-yl)benzoate compound with methyl 3-((4aS,5S,5aR,8aR,9R,9aS,10R)-2,6,8-trioxo-10-phenyl-3,4a,5,5a,6,8,8a,9,9a,10-decahydro-5,9-methanothiazolo[5′,4′:5,6]thiopyrano[2,3-f]isoindol-7(2H)-yl)benzoate (1:1)], the “antagonistic activity (% inhibition)” value amounted to 34%. As to `CCOC(=O)N1CCN(c2ncc(N3C(=O)C4C(C3=O)[C@H]3C=C[C@@H]4C3)cc2[N+](=O)[O-])CC1` (stereo partly shown) [Compound S34], the “antagonistic activity (% inhibition)” value is listed as 30%. For the molecule `O=C1C2C3CC(C2C(=O)N1c1ccccc1)C1C(c2ccc(O)cc2)c2sc(=O)[nH]c2SC31` (stereo not shown) [Compound S19], the “antagonistic activity (% inhibition)” value is 50%. For `O=C1[C@@H]2[C@H]3C[C@H]([C@@H]4Sc5[nH]c(=O)sc5[C@@H](c5ccc(O)cc5)[C@H]34)[C@@H]2C(=O)N1c1ccccc1` (racemic) [Compound S122, (4aR,5R,5aS,8aS,9S,9aR,10S)-10-(4-hydroxyphenyl)-7-phenyl-3,4a,5,5a,8a,9,9a,10-octahydro-5,9-methanothiazolo[5′,4′:5,6]thiopyrano[2,3-f]isoindole-2,6,8(7H)-trione compound with (4aS,5S,5aR,8aR,9R,9aS,10R)-10-(4-hydroxyphenyl)-7-phenyl-3,4a,5,5a,8a,9,9a,10-octahydro-5,9-methanothiazolo[5′,4′:5,6]thiopyrano[2,3-f]isoindole-2,6,8(7H)-trione (1:1)], the “antagonistic activity (% inhibition)” value came out at 38%.

On to `O=C1C2C3CC(C2C(=O)N1c1cccc(C(F)(F)F)c1)C1C(c2ccccc2)c2sc(=O)[nH]c2SC31` (stereo not shown) [Compound S21], for which the “antagonistic activity (% inhibition)” value was determined as 55%. With `Nc1ccc(N2C(=O)[C@@H]3[C@H]4C[C@H]([C@@H]5Sc6[nH]c(=O)sc6[C@@H](c6ccccc6)[C@H]45)[C@@H]3C2=O)cc1` (racemic) [Compound S79, (4aR,5R,5aS,8aS,9S,9aR,10S)-7-(4-aminophenyl)-10-phenyl-3,4a,5,5a,8a,9,9a,10-octahydro-5,9-methanothiazolo[5′,4′:5,6]thiopyrano[2,3-f]isoindole-2,6,8(7H)-trione Compound with (4aS,5S,5aR,8aR,9R,9aS,10R)-7-(4-aminophenyl)-10-phenyl-3,4a,5,5a,8a,9,9a,10-octahydro-5,9-methanothiazolo[5′,4′:5,6]thiopyrano[2,3-t]isoindole-2,6,8(7H)-trione (1:1)] the figure was 29%; with `O=C1[C@@H]2[C@H]3C[C@H]([C@@H]4Sc5[nH]c(=O)sc5[C@@H](c5cccc(O)c5)[C@H]34)[C@@H]2C(=O)N1c1ccccc1` (racemic) [Compound S125, (4aR,5R,5aS,8aS,9S,9aR,10S)-10-(3-hydroxyphenyl)-7-phenyl-3,4a,5,5a,8a,9,9a,10-octahydro-5,9-methanothiazolo[5′,4′:5,6]thiopyrano[2,3-f]isoindole-2,6,8(7H)-trione compound with (4aS,5S,5aR,8aR,9R,9aS,10R)-10-(3-hydroxyphenyl)-7-phenyl-3,4a,5,5a,8a,9,9a,10-octahydro-5,9-methanothiazolo[5′,4′:5,6]thiopyrano[2,3-f]isoindole-2,6,8(7H)-trione (1:1)], 34%; with `CC(=O)c1ccc(N2C(=O)[C@@H]3[C@H]4C[C@H]([C@@H]5Sc6[nH]c(=O)sc6[C@@H](c6ccccc6)[C@H]45)[C@@H]3C2=O)cc1` (racemic) [Compound S80, (4aR,5R,5aS,8aS,9S,9aR,10S)-7-(4-acetylphenyl)-10-phenyl-3,4a,5,5a,8a,9,9a,10-octahydro-5,9-methanothiazolo[5′,4′:5,6]thiopyrano[2,3-f]isoindole-2,6,8(7H)-trione Compound with (4aS,5S,5aR,8aR,9R,9aS,10R)-7-(4-acetylphenyl)-10-phenyl-3,4a,5,5a,8a,9,9a,10-octahydro-5,9-methanothiazolo[5′,4′:5,6]thiopyrano[2,3-f]isoindole-2,6,8(7H)-trione (1:1)], 25%. The same measure for `CN1CCN(c2ccc(N3C(=O)[C@@H]4[C@H]5C[C@H]([C@@H]6Sc7[nH]c(=O)sc7[C@@H](c7ccccc7)[C@H]56)[C@@H]4C3=O)cc2[N+](=O)[O-])CC1` [Compound S38, (4aS,5S,5aR,8aR,9R,9aS,10R)-7-(4-(4-methylpiperazin-1-yl)-3-nitrophenyl)-10-phenyl-3,4a,5,5a,8a,9,9a,10-octahydro-5,9-methanothiazolo[5′,4′:5,6]thiopyrano[2,3-f]isoindole-2,6,8(7H)-trione]: 40%. For the molecule `O=C1[C@@H]2[C@H]3C[C@H]([C@@H]4Sc5[nH]c(=O)sc5[C@@H](c5ccccc5)[C@H]34)[C@@H]2C(=O)N1c1ccc(O)cc1` (racemic) [Compound S100, (4aR,5R,5aS,8aS,9S,9aR,10S)-7-(4-hydroxyphenyl)-10-phenyl-3,4a,5,5a,8a,9,9a,10-octahydro-5,9-methanothiazolo[5′,4′:5,6]thiopyrano[2,3-f]isoindole-2,6,8(7H)-trione compound with (4aS,5S,5aR,8aR,9R,9aS,10R)-7-(4-hydroxyphenyl)-10-phenyl-3,4a,5,5a,8a,9,9a,10-octahydro-5,9-methanothiazolo[5′,4′:5,6]thiopyrano[2,3-f]isoindole-2,6,8(7H)-trione (1:1)], the “antagonistic activity (% inhibition)” value was 34%.
